Data from patent US7244753B2, “Cyclooxygenase-2 selective inhibitors, compositions and methods of use” (NitroMed, Inc., priority 2002, dated 2007).

Experiments:
Human COX-1 = molecular target: T1, Human COX-1 (Homo sapiens, UniProt P23219); assay: COX-1 enzyme activity in human whole blood (A23187-stimulated, thromboxane B2 EIA); format: cell-based; settings: 100 μM test compound
T1 construct: Human blood (≈50 mL) from male or female donors who had not received any aspirin or NSAIDs for 14 days was collected; endogenous in cells; host or cells: human whole blood from donors, heparinised, stimulated with calcium ionophore A23187
T1 sequence (P23219 24-599): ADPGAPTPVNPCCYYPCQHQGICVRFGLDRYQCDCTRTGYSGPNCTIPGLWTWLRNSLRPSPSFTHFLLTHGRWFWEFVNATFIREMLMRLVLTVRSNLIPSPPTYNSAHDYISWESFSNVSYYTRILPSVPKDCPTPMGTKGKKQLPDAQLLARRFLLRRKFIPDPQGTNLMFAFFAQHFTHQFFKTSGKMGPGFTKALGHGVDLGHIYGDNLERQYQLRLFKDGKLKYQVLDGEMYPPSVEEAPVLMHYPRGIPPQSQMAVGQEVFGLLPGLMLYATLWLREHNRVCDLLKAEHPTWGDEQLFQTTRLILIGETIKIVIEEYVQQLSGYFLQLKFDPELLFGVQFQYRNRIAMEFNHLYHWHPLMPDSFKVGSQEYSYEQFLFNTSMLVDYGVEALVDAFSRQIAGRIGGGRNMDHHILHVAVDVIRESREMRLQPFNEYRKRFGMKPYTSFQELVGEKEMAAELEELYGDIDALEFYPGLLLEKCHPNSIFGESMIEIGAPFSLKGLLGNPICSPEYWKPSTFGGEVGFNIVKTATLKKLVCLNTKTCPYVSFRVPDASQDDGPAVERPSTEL
Description: (§1) The assay for COX-1 and COX-2 enzyme activity, in the human whole blood was performed as described in Brideau et al., Inflamm Res., 45: 68-74 (1996)). Human blood (≈50 mL) from male or female donors who had not received any aspirin or NSAIDs for 14 days was collected at two local area blood donor centers and placed in polypropylene syringes containing sodium heparin (20 units per mL blood, final concentration). The blood was transported to the laboratory on ice packs and used within 1.5 hours of collection. Upon receipt in the laboratory, the blood was allowed to come to room temperature for 15 minutes prior to distribution in 1 mL aliquots per well of 24 well tissue culture plates. The plates were then placed on a gently rotating platform shaker in a 5% CO2 incubator at 37° C. for 15 minutes. Test compounds were dissolved in DMSO, at 1000 fold the final desired concentration, and further diluted, as indicated, in DMSO. One μL of each dilution of the test compound was added per well, in duplicate wells; wells not receiving test compound (e.g., basal, background or control wells) received 1 μL DMSO.
(§2) To induce COX-2, lipopolysaccharide (LPS) from E. coli (LPS, serotype 026:B6 or serotype 0127:B8, Sigma Chemical Co., St. Louis, Mo., Catalogue No. L3755 or L3129, respectively) was added at 10 μg/mL (2 μL of 5 mg/mL LPS in DMSO) to appropriate wells 15 minutes after the addition of the test compound. (Basal or background wells not incubated with LPS received 2 μL of DMSO.) For the stimulation of COX-1, the calcium ionophore, A23187 (free acid from Sigma Chemical Co., St. Louis, Mo., Catalogue No. C7522) was added at 25 μM (1 μL of 25 mM stock in DMSO) to separate wells 4.5 hours after the addition of the test compound. (Again, basal, background or control wells not stimulated with A23187 received 1 μL of DMSO.) At 5 hours after the addition of the test compound, all incubations were terminated by placement on ice and the addition of 2 mM EGTA (100 μL of 20 mM EGTA, tetrasodium, in PBS (phosphate buffered saline) without Ca^++ and Mg^++, pH 7.2)). The resulting solutions, were transferred by polyethylene transfer pipettes to 15 mL polypropylene centrifuge tubes and centrifuged at 1200 g for 10 minutes at 4° C. One hundred μL of plasma was removed from each blood sample and added to 1 mL of methanol in new 15 mL polypropylene centrifuge tubes, vortexed, and stored overnight at −20° C. The next day, the samples were centrifuged at 2000 g for 10 minutes at 4° C. and the supernatants transferred to glass tubes and evaporated to dryness. The samples were assayed for thromboxane B2 using EIA kits supplied by Cayman Chemical Co. (Ann Arbor, Mich., Catalogue No. 519031) in duplicate wells after reconstitution with EIA Buffer and appropriate dilution (2000 fold for COX-1 and 500 fold for Cox-2 samples).
The % inhibition for COX-1 and COX-2 enzyme activity in human whole blood by the test compounds, at the indicated concentrations, are given in Table 1.

Human COX-2 = molecular target: T2, Human COX-2 (Homo sapiens, UniProt P35354); assay: COX-2 enzyme activity in human whole blood (LPS-induced, thromboxane B2 EIA); format: cell-based; settings: for inhibition at 1 µM: 1 μM test compound; for inhibition at 10 µM: 10 μM test compound
T2 construct: Human blood (≈50 mL) from male or female donors who had not received any aspirin or NSAIDs for 14 days was collected; endogenous in cells; host or cells: human whole blood from donors, heparinised, COX-2 induced with E. coli LPS
T2 sequence (P35354 18-604): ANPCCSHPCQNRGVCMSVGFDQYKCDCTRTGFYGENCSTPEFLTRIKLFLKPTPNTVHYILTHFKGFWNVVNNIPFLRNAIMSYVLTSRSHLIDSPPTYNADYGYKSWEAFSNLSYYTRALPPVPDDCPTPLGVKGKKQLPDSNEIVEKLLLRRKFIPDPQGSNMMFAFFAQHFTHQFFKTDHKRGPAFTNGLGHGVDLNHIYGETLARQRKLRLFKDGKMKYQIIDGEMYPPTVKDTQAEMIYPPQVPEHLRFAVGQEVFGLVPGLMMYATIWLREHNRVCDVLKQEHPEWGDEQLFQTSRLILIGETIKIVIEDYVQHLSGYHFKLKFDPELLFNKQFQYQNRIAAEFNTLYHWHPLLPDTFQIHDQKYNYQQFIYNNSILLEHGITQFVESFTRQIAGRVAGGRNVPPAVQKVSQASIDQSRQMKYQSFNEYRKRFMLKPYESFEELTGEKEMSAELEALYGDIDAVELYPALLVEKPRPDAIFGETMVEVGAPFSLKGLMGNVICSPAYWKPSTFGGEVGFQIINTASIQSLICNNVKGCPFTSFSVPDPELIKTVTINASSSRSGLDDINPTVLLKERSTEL
Description: as §1, with “Human” for “The assay for COX-1 and COX-2 enzyme activity, in the human whole blood was performed as described in Brideau et al., Inflamm Res., 45: 68-74 (1996)). Human”
as §2, with “(Basal” for “To induce COX-2, lipopolysaccharide (LPS) from E. coli (LPS, serotype 026:B6 or serotype 0127:B8, Sigma Chemical Co., St. Louis, Mo., Catalogue No. L3755 or L3129, respectively) was added at 10 μg/mL (2 μL of 5 mg/mL LPS in DMSO) to appropriate wells 15 minutes after the addition of the test compound. (Basal”, “dryness.” for “dryness. The samples were assayed for thromboxane B2 using EIA kits supplied by Cayman Chemical Co. (Ann Arbor, Mich., Catalogue No. 519031) in duplicate wells after reconstitution with EIA Buffer and appropriate dilution (2000 fold for COX-1 and 500 fold for Cox-2 samples).”

[1] = test system: Rat Carrageenan Air-Pouch; assay: Rat carrageenan air-pouch; format: in vivo; settings: 45 μmol/kg by oral intubation 1 hour prior to carrageenan
Description: The carrageenan air pouch model was performed as described by Sedgwick, A. D., et al., Agents Actions 18, 429-438, (1986) and Masferrer et al., Proc. Natl. Acad. Sci. 91, 3228-3232 (1994). Air pouches were produced by subcutaneous injection of 20 ml of sterile air on day (−6) into the intrascapular area of the back of the anesthesia rat (male CD, Charles River, 175-200 g). An additional 10 mL of sterile air was injected into the pouch 3 days later to keep the space open and to assist in the development of the interior membrane. Six days after the initial air injection, 1 mL of a 1% solution of carrageenan (Sigma, lambda fraction) dissolved in pyrogen-free saline was injected directly into the pouch to produce an inflammatory response. The test compound in vehicle (3 mL/rat, 0.5% Methocel) was administered by oral intubation 1 hour prior to carrageenan injection into the inflammatory pouch. After 4 hours the exudate was removed by pipette into a calibrated centrifuge tube and the volume measured. The number of leukocytes in the exudate was determined by cell counting with a Beckman Coulter Particle Counter with the lower threshold set to exclude red blood cells. The exudate samples were assayed without further processing for PGE2 (prostaglandin E2) using PGE2 EIA kit-Monoclonal, friom Cayman Chemical Co. (Ann Arbor, Mich., Catalogue No. 514010). […]

SMILES | inhibition at 100 µM (Human COX-1) | inhibition at 1 µM (Human COX-2) | inhibition at 10 µM (Human COX-2) | PGE-2 (% Inhibition at @ 45 μmol/kg) ([1]; exudate PGE2 after 4 hours) | Cell Infiltration (% inhibition @ 45 μmol/kg) ([1]; exudate leukocytes after 4 hours) | melting point
CS(=O)(=O)c1ccc(-c2cc(COCCO[N+](=O)[O-])nn2CC2CCCCC2)cc1 [Example 2f, 4-(1-(Cyclohexylmethyl)-3-((2-(nitrooxy)ethoxy)methyl)pyrazol-5-yl)-1-(methylsulfonyl)benzene] | 70% | 20% | 75% | 85% | 42% | 
CS(=O)(=O)c1ccc(-c2cc(CO[N+](=O)[O-])nn2CC2CCCCC2)cc1 [Example 1h, 1-(1-(Cyclohexylmethyl)-3-((nitrooxy)methyl)pyrazol-5-yl)-4-(methylsulfonyl)benzene] | 25% | 10% | 65% |  |  | 98 to 99 °C
